In brackets after ≈: the same amount, converted by molar mass. Like-named read-outs stand apart in the source and are kept apart here.
Experiments:
MRSA ATCC 43300 = test system: MRSA ATCC 43300
Protocol: (§1) A positive control of a row of just the bacteria and a negative control of only the medium were included for every plate tested.
(§2) The compounds along with standard antibiotics were serially diluted 2-fold across the 96-well plates. […] A sample of each culture was then diluted 40-fold in fresh MH broth (in presence and absence of Tween) and incubated at 37°C for 2 to 3 h.
For experiments in the presence of surfactant, 2% beractant (25 mg/ml) was added to the mid-log-phase cultures and mixed gently and added to all the 96-well plates. For experiments in the presence of serum, a mixture of 50% of human serum along with 50% MHB was prepared and used throughout the experiment.

MRSA = settings: literature value; cited from earlier work
Source text: TABLE 1 Literature MIC values for tested antibiotics | column: MIC (µg/ml) (reference[s]) / MRSA

S. pyogenes ATCC 12344 = settings: n = 2
Protocol: as §1, §2

[1] = test system: MSSA S. aureus ATCC 25923; assay: microbe, parasite or virus in culture; settings: n = 2
Protocol: as §1, §2

S. pneumoniae ATCC 33440 = assay: microbe, parasite or virus in culture; settings: n = 2
Protocol: as §1, §2

E. faecalis ATCC 29212 = assay: microbe, parasite or virus in culture; settings: n = 2
Protocol: as §1, §2

[2] = test system: S. aureus GISA NRS 2; ATCC 700698; assay: microbe, parasite or virus in culture; settings: n = 2
Protocol: as §1, §2

[3] = test system: S. pneumoniae ATCC 700677 (MDR); assay: microbe, parasite or virus in culture; settings: n = 2
Protocol: as §1, §2

[4] = literature values, reference given; cited from earlier work
Source text: Other assay additives can affect MIC values. […] Plasma protein binding has been implicated as a major factor limiting the active free concentration of many clinically important antibiotics ([37][–][42]).

[5] = Corning flat NBS plate, MHB +0.002% T80, no further additive, n = 2
[6] = Corning flat PS plate, MHB −T80, no additive, n = 2

Compound `CNC(=O)[C@H](CCCCNC(=O)[C@H]1NC(=O)[C@H]2NC(=O)[C@H](NC(=O)[C@@H]3NC(=O)[C@H](CC(N)=O)NC(=O)[C@H](NC(=O)[C@@H](CC(C)C)NC)[C@H](O)c4ccc(c(Cl)c4)Oc4cc3cc(c4O[C@@H]3O[C@H](CO)[C@@H](O)[C@H](O)[C@H]3O[C@H]3C[C@](C)(N)[C@H](O)[C@H](C)O3)Oc3ccc(cc3Cl)[C@H]2O)c2ccc(O)c(c2)-c2c(O)cc(O)cc21)NC(=O)[C@H](CCCCN)NC(=O)[C@H](CCCCN)NC(=O)[C@H](CCCCNC(=O)c1ccc(Oc2ccccc2)cc1)NC(=O)c1ccc(Oc2ccccc2)cc1` [MCC310] has an MIC (MRSA ATCC 43300; [5]) of 0.007 µg/mL (≈ 0.00296 µM) and an MIC (MRSA ATCC 43300; [6]) of 4 µg/mL (≈ 1.69 µM).

In the case of `CN[C@H](CC(C)C)C(=O)N[C@H]1C(=O)N[C@@H](CC(N)=O)C(=O)N[C@H]2C(=O)N[C@H]3C(=O)N[C@H](C(=O)N[C@H](C(=O)O)c4cc(O)cc(O)c4-c4cc3ccc4O)[C@H](O)c3ccc(c(Cl)c3)Oc3cc2cc(c3O[C@@H]2O[C@H](CO)[C@@H](O)[C@H](O)[C@H]2O[C@H]2C[C@](C)(N)[C@H](O)[C@H](C)O2)Oc2ccc(cc2Cl)[C@H]1O` [Vancomycin, vancomycin], the “MIC (literature)” value (MRSA) is listed as 2 ([62]) µg/ml, the MIC (S. pyogenes ATCC 12344; Corning NBS, MHB +T80) is listed as 0.125 to 0.25 µg/mL and the MIC (S. pyogenes ATCC 12344; Corning NBS, MHB -T80) is listed as 0.125 to 0.25 µg/mL. The MIC (S. pyogenes ATCC 12344; Corning PS, MHB +T80) was 0.125 µg/mL (≈ 0.0863 µM), the MIC (S. pyogenes ATCC 12344; Corning PS, MHB -T80) was 0.125 µg/mL (≈ 0.0863 µM) and the MIC (S. pyogenes ATCC 12344; Corning TC, MHB +T80) was 0.125 to 0.25 µg/mL. The MIC (S. pyogenes ATCC 12344; Corning TC, MHB -T80) was 0.125 µg/mL (≈ 0.0863 µM), the MIC ([1]; Corning NBS, MHB +T80) was 1 to 2 µg/mL and the MIC ([1]; Corning NBS, MHB -T80) was 0.5 to 1 µg/mL. The MIC ([1]; Corning PS, MHB +T80) was 1 to 2 µg/mL, the MIC ([1]; Corning PS, MHB -T80) was 0.5 to 1 µg/mL and the MIC ([1]; Corning TC, MHB +T80) was 1 µg/mL (≈ 0.69 µM). It also gave an MIC ([1]; Corning TC, MHB -T80) of 0.5 to 1 µg/mL, an MIC (S. pneumoniae ATCC 33440; Corning NBS, MHB +T80) of 0.5 to 1 µg/mL and an MIC (S. pneumoniae ATCC 33440; Corning NBS, MHB -T80) of 0.5 to 1 µg/mL. The MIC (S. pneumoniae ATCC 33440; Corning PS, MHB +T80) was 1 µg/mL (≈ 0.69 µM), the MIC (S. pneumoniae ATCC 33440; Corning PS, MHB -T80) was 1 µg/mL (≈ 0.69 µM) and the MIC (S. pneumoniae ATCC 33440; Corning TC, MHB +T80) was 1 µg/mL (≈ 0.69 µM). It also gave an MIC (S. pneumoniae ATCC 33440; Corning TC, MHB -T80) of 0.5 to 1 µg/mL, an MIC (E. faecalis ATCC 29212; Corning NBS, MHB +T80) of 1 µg/mL (≈ 0.69 µM) and an MIC (E. faecalis ATCC 29212; Corning NBS, MHB -T80) of 1 to 2 µg/mL. For the same compound, the MIC (E. faecalis ATCC 29212; Corning PS, MHB +T80) was 1 µg/mL (≈ 0.69 µM), the MIC (E. faecalis ATCC 29212; Corning PS, MHB -T80) was 1 µg/mL (≈ 0.69 µM) and the MIC (E. faecalis ATCC 29212; Corning TC, MHB +T80) was 1 µg/mL (≈ 0.69 µM). For the same compound, the MIC (E. faecalis ATCC 29212; Corning TC, MHB -T80) was 1 to 2 µg/mL, the MIC ([2]; Corning NBS, MHB +T80) was 0.5 to 1 µg/mL and the MIC ([2]; Corning NBS, MHB -T80) was 0.5 µg/mL (≈ 0.345 µM). It also gave an MIC ([2]; Corning PS, MHB +T80) of 0.5 to 1 µg/mL, an MIC ([2]; Corning PS, MHB -T80) of 0.5 to 1 µg/mL and an MIC ([2]; Corning TC, MHB +T80) of 0.5 µg/mL (≈ 0.345 µM). For the same compound, the MIC ([2]; Corning TC, MHB -T80) was 0.5 to 1 µg/mL, the MIC ([3]; Corning NBS, MHB +T80) was 1 to 2 µg/mL and the MIC ([3]; Corning NBS, MHB -T80) was 0.5 µg/mL (≈ 0.345 µM). The MIC ([3]; Corning PS, MHB +T80) was 1 µg/mL (≈ 0.69 µM), the MIC ([3]; Corning PS, MHB -T80) was 1 µg/mL (≈ 0.69 µM) and the MIC ([3]; Corning TC, MHB +T80) was 0.5 to 1 µg/mL. For the same compound, the MIC ([3]; Corning TC, MHB -T80) was 1 µg/mL (≈ 0.69 µM), the protein binding [4] was 55% and the MIC (MRSA ATCC 43300; Corning NBS, MH + 2% LHB, 2% LS, n = 2) was 0.5 to 1 µg/mL. It also gave an MIC (MRSA ATCC 43300; Corning NBS, MH + 2% LHB, 50% HS, n = 2) of 0.5 to 1 µg/mL, an MIC (MRSA ATCC 43300; Corning NBS, MH + 2% LHB, no additive, n = 2) of 1 µg/mL and an MIC (MRSA ATCC 43300; Corning NBS, MH + T80, 2% LS, n = 2) of 0.25 to 0.5 µg/mL. The MIC (MRSA ATCC 43300; Corning NBS, MH + T80, 50% HS, n = 2) was 1 µg/mL, the MIC (MRSA ATCC 43300; Corning NBS, MH, 2% LS, n = 2) was 0.5 µg/mL (≈ 0.345 µM) and the MIC (MRSA ATCC 43300; Corning NBS, MH, 50% HS, n = 2) was 0.25 to 0.5 µg/mL. It also gave an MIC (MRSA ATCC 43300; Corning PS, MH + 2% LHB, 2% LS, n = 2) of 0.5 to 1 µg/mL, an MIC (MRSA ATCC 43300; Corning PS, MH + 2% LHB, 50% HS, n = 2) of 0.5 to 1 µg/mL and an MIC (MRSA ATCC 43300; Corning PS, MH + 2% LHB, no additive, n = 2) of 1 µg/mL. The MIC (MRSA ATCC 43300; Corning PS, MH + T80, 2% LS, n = 2) was 0.5 to 2 µg/mL, the MIC (MRSA ATCC 43300; Corning PS, MH + T80, 50% HS, n = 2) was 0.5 µg/mL and the MIC (MRSA ATCC 43300; Corning PS, MH, 2% LS, n = 2) was 0.5 to 1 µg/mL. For the same compound, the MIC (MRSA ATCC 43300; Corning PS, MH, 50% HS, n = 2) was 0.25 to 0.5 µg/mL, the MIC (MRSA ATCC 43300; Corning TC, MH + 2% LHB, 2% LS, n = 2) was 0.5 to 1 µg/mL and the MIC (MRSA ATCC 43300; Corning TC, MH + 2% LHB, 50% HS, n = 2) was 0.5 µg/mL. It also gave an MIC (MRSA ATCC 43300; Corning TC, MH + 2% LHB, no additive, n = 2) of 0.5 µg/mL, an MIC (MRSA ATCC 43300; Corning TC, MH + T80, 2% LS, n = 2) of 0.5 µg/mL and an MIC (MRSA ATCC 43300; Corning TC, MH + T80, 50% HS, n = 2) of 0.5 to 1 µg/mL. It also gave an MIC (MRSA ATCC 43300; Corning TC, MH, 2% LS, n = 2) of 0.25 to 1 µg/mL, an MIC (MRSA ATCC 43300; Corning TC, MH, 50% HS, n = 2) of 0.25 to 0.5 µg/mL and an MIC (MRSA ATCC 43300; [5]) of 1 µg/mL (≈ 0.69 µM). It also gave an MIC (MRSA ATCC 43300; Corning flat NBS plate, MHB −T80, no additive, n = 2) of 0.5 µg/mL (≈ 0.345 µM), an MIC (MRSA ATCC 43300; Corning flat PS plate, MHB +0.002% T80, no further additive, n = 2) of 1 to 2 µg/mL and an MIC (MRSA ATCC 43300; [6]) of 0.5 µg/mL (≈ 0.345 µM). The MIC (MRSA ATCC 43300; Corning flat TC plate, MHB +0.002% T80, no further additive, n = 2) was 1 µg/mL (≈ 0.69 µM), the MIC (MRSA ATCC 43300; Corning flat TC plate, MHB −T80, no additive, n = 2) was 0.5 µg/mL (≈ 0.345 µM) and the MIC (MRSA ATCC 43300; Nunc U TC plate, MHB +0.002% T80, n = 2) was 1 µg/mL (≈ 0.69 µM). For the same compound, the MIC (MRSA ATCC 43300; Nunc U TC plate, MHB −T80, n = 2) was 0.5 µg/mL (≈ 0.345 µM), the MIC (MRSA ATCC 43300; Nunc flat PS plate, MHB +0.002% T80, n = 2) was 1 µg/mL (≈ 0.69 µM) and the MIC (MRSA ATCC 43300; Nunc flat PS plate, MHB −T80, n = 2) was 1 µg/mL (≈ 0.69 µM). It also gave an MIC (MRSA ATCC 43300; Nunc flat TC plate, MHB +0.002% T80, n = 2) of 1 µg/mL (≈ 0.69 µM), an MIC (MRSA ATCC 43300; Nunc flat TC plate, MHB −T80, n = 2) of 1 to 2 µg/mL and an MIC (MRSA ATCC 43300; Trek PS, MH + 2% LHB, 2% LS, n = 2) of 0.25 to 0.5 µg/mL. The MIC (MRSA ATCC 43300; Trek PS, MH + 2% LHB, 50% HS, n = 2) was 0.5 µg/mL, the MIC (MRSA ATCC 43300; Trek PS, MH + 2% LHB, no additive, n = 2) was 0.25 µg/mL and the MIC (MRSA ATCC 43300; Trek PS, MH + T80, 2% LS, n = 2) was 0.06 to 1 µg/mL. For the same compound, the MIC (MRSA ATCC 43300; Trek PS, MH + T80, 50% HS, n = 2) was 0.25 to 0.5 µg/mL, the MIC (MRSA ATCC 43300; Trek PS, MH, 2% LS, n = 2) was 0.03 µg/mL (≈ 0.0207 µM) and the MIC (MRSA ATCC 43300; Trek PS, MH, 50% HS, n = 2) was 0.25 µg/mL (≈ 0.173 µM). The MIC (MRSA ATCC 43300; Trek flat PS plate, MHB +0.002% T80, no further additive, n = 2) was 1 µg/mL (≈ 0.69 µM), the MIC (MRSA ATCC 43300; Trek flat PS plate, MHB −T80, no additive, n = 2) was 0.5 to 1 µg/mL and the “MIC” value (MRSA ATCC 43300; regardless of plate type or addition of T80) was “around 1 µg/ml”.

In the case of `CC(=O)NC[C@H]1CN(c2ccc(N3CCOCC3)c(F)c2)C(=O)O1` [linezolid], the protein binding [4] is listed as 31%.

In the case of `C[C@@H](O)[C@H]1C(=O)N2C(C(=O)O)=C(S[C@@H]3CN[C@H](C(=O)N(C)C)C3)[C@H](C)[C@H]12` [meropenem], the protein binding [4] is given as 2%.

In the case of daptomycin, the protein binding [4] is listed as 92%.
